Data reported in patent US5366726A (priority 1992, dated 1994).
Several values for one entry are separate records, joined by “and”; a condition that tells them apart may be missing. Equal values may be shown once. Entries after “also recorded” stand apart in the source; their conditions may differ.

Legend:
Pneumocystis carinii [1] = experiment: Example 8: randomized clinical trial, prevention of PCP; assay type: in vivo, human
Pneumocystis carinii [2] = experiment: Example 7: prevention of PCP, 300 mg twice per month vs 600 mg once per month; assay type: in vivo, human
From the text: Five patients who developed PCP within 28 days were not evaluated. One hundred (66%) of the patients were concurrently receiving AZT, and 42 (28%) had experienced one prior episode of PCP.

[3] = human, in vivo
[4] = inhaled, animals; cited from earlier work
Pneumocystis carinii [5] = details: standard therapy, intravenous pentamidine or TMP-SMX
From the text: Adult patients having or suspected of having AIDS, and who were hospitalized for a fiberoptic bronchoscopy to evaluate diffuse infiltrates on chest radiographs, were studied. The patients were divided into two groups.

[6] = Example 2: aerosol particle size, Mercer cascade impactor; assay type: physicochemical
From the text: A compressed oxygen (5-7 L/min at 345 kPa, 50 psi) powered nebulizer produces the aerosol and one-way valves provide for entrainment of room air in patients whose minute ventilation is high, act as a baffle to decrease particle size, and direct expired air to a filter which removes the remaining particles of drug thereby preventing environmental contamination.
Particles were sized with a 7 stage Mercer cascade impactor (Intox Products, Albuquerque, N. Mex.). The gas supply was 6 L/min, the sample stream was not dried, and the impactor flow rates were 0.5 L/min. […] Results from the average of three determinations at each location were expressed as mass median aerodynamic diameter±geometric standard deviation (MMAD±GSD). Raabe, J Aerosol Sci (1971) 2:289-303.

Pneumocystis carinii [7] = experiment: Example 5: prevention of P. carinii pneumonia, 300 mg once per month; assay type: in vivo, human; details: single prior episode; vs 10 based on 132 historical controls, p<0.01
From the text: (§1) Within 30 days of initiation of prophylaxis, ten patients were omitted due to treatment (9) or relapse (1). Of the 93 patients, 48 had had at least one previous episode of PCP. Two-thirds of the patients were taking AZT at the onset and throughout the duration of the post-exposure prophylaxis. The median and maximum duration of treatment at the time of analysis was 3.1 and 5.2 months.

[8] = Example 1: toxicity of inhaled vs intravenous pentamidine in patients; details: for major toxicity: neutropenia
Pneumocystis carinii [9] = experiment: Example 1: treatment of P. carinii pneumonia, inhaled vs intravenous pentamidine; assay type: in vivo, human
Pneumocystis carinii [10] = experiment: Example 6: prevention of PCP, different dosages and regimens; assay type: in vivo, human; details: of 372, at least one treatment
From the text: A total of 438 participants were selected on the basis of seropositivity for HIV, and were stratified on the basis of (i) prior PCP (n=250), (ii) Kaposi's sarcoma (n=59) or (iii) ARC (n=129).

[11] = parenteral pentamidine, TMP-SMX; cited from earlier work
[12] = parameters: species or system human; details: in vivo
From the text: Chest radiographs and arterial blood gas tensions were obtained as clinically indicated.
Liver function SGOT or SGPT
Rash with fever or mucositis
Cough cough or bronchospasm un-

[13] = parameters: species or system human; details: in vivo; remark: listed apart in the source
From the text: as §1

[14] = Example 1: pentamidine concentrations in plasma and bronchoalveolar lavage fluid (HPLC); assay type: in vivo, human; details: for Plasma conc. on Day 1: peak during or end of inhalation, single patients
Description: For six inhalation patients (1, 4, 6, 7, 15, and 16) and five i.v. patients (2, 3, 5, 8, and 22), plasma samples were obtained at the completion of therapy and at 0.17, 0.5, 1, 1.5, 2, 2.5, 3, 4, 5, 6, 8, 10, 12, and 18 hours following initiation of therapy. For patients 9-14 and 17-21, trough and peak plasma samples were collected for the first three days, then weekly during therapy. Trough and peak samples were obtained on days 2, 3, 4, 5, 7, 11, and 13 for patient 2, days 2, 3, 4, 5, 7, and 12 for patient 3, days 2, 3, 4, 5, 13 and 18 for patient 5, and days 2, 3, 4, 5, and 11 for patient 8.

[15] = all strata, eligible, PCP within 60 days, 30 mg
[16] = all strata, eligible, confirmed PCP within 60 days, 30 mg
[17] = prior PCP strata, eligible, PCP within 60 days, 30 mg
[18] = prior PCP strata, eligible, PCP within 60 days, 150 mg
[19] = prior PCP strata, eligible, PCP within 60 days, 300 mg
[20] = prior PCP strata, eligible, confirmed PCP within 60 days, 30 mg
[21] = prior PCP strata, eligible, confirmed PCP within 60 days, 150 mg
[22] = prior PCP strata, eligible, confirmed PCP within 60 days, 300 mg

In the case of `N=C(N)c1ccc(OCCCCCOc2ccc(C(=N)N)cc2)cc1` [pentamidine, p,p'-(pentamethylenedioxy)dibenzamidine], the “effectiveness vs 300 mg” value (Pneumocystis carinii [1]; 150 mg arm, compared with 30 mg arm, not statistically significant vs 300 mg) is reported as “consistently less effective than 300 mg”, the “time to PCP occurrence, Kaplan-Meier” value (Pneumocystis carinii [1]; 150 mg vs 30 mg) is reported as “superior to the 30 mg arm but less so than the 300 mg arm” and the “PCP episodes vs other arms” value (Pneumocystis carinii [1]; 300 mg arm) is reported as “fewest PCP episodes”. For the same compound, the “time to PCP occurrence, Kaplan-Meier” value (Pneumocystis carinii [1]; 300 mg every 4 weeks vs 30 mg every 2 weeks) was “consistently superior”, the “hazard of PCP, Cox model” value (Pneumocystis carinii [1]; 300 mg group) was “significantly lower hazard of PCP” and the “PCP episodes documented during study” value (Pneumocystis carinii [1]; all arms) was “One hundred-one”. The “PCP events not histologically confirmed” value (Pneumocystis carinii [1]; all arms) was “Twenty-five”, the “completed the study without reaching a study endpoint” value (Pneumocystis carinii [1]; all arms) was 26% and the “deaths due to PCP” value (Pneumocystis carinii [1]; all arms) was “Nineteen”. For the same compound, the “p, log rank 30 mg vs. 300 mg” value (Pneumocystis carinii [1]; all strata, eligible, PCP within 60 days) was “.004”, the “No PCP” value (Pneumocystis carinii [1]; [15]) was 89 and the PCP (Pneumocystis carinii [1]; [15]) was 28. The PCP (Pneumocystis carinii [1]; all strata, eligible, PCP within 60 days, 150 mg) was 18, the PCP (Pneumocystis carinii [1]; all strata, eligible, PCP within 60 days, 300 mg) was 16 and the “p, log rank 30 mg vs. 300 mg” value (Pneumocystis carinii [1]; all strata, eligible, confirmed PCP within 60 days) was “.0008”. The “No PCP” value (Pneumocystis carinii [1]; [16]) was 95, the PCP (Pneumocystis carinii [1]; [16]) was 22 and the PCP (Pneumocystis carinii [1]; all strata, eligible, confirmed PCP within 60 days, 150 mg) was 16. The PCP (Pneumocystis carinii [1]; all strata, eligible, confirmed PCP within 60 days, 300 mg) was 8, the “p, log rank 30 mg vs. 300 mg” value (Pneumocystis carinii [1]; all strata, intention to treat) was “.02” and the PCP (Pneumocystis carinii [1]; all strata, intention to treat, all PCP, 30 mg) was 41. The PCP (Pneumocystis carinii [1]; all strata, intention to treat, all PCP, 150 mg) was 32, the PCP (Pneumocystis carinii [1]; all strata, intention to treat, all PCP, 300 mg) was 28 and the “No PCP” value (Pneumocystis carinii [1]; all strata, intention to treat, 30 mg) was 94. For the same compound, the “Cox relative hazard of 30 mg, on study drugs events” value (Pneumocystis carinii [1]; for 150 mg) was 1.7, the “Cox relative hazard of 30 mg, on study drugs events” value (Pneumocystis carinii [1]; for 300 mg) was 3.9 and the “all cause mortality between three treatment arms” value (Pneumocystis carinii [1]; human, in vivo) was “did not significantly differ”. For the same compound, the “participants who developed PCP” value (Pneumocystis carinii [1]; initial CD4 counts greater than 200, no prior PCP) was 5.1%, the “participants who developed PCP” value (Pneumocystis carinii [1]; initial CD4 counts less than 200, no prior PCP) was 13% and the “p, log rank 30 mg vs. 300 mg” value (Pneumocystis carinii [1]; prior PCP strata, eligible, PCP within 60 days) was “.006”. For the same compound, the “No PCP” value (Pneumocystis carinii [1]; [17]) was 42, the PCP (Pneumocystis carinii [1]; [17]) was 25 and the “No PCP” value (Pneumocystis carinii [1]; [18]) was 51. The PCP (Pneumocystis carinii [1]; [18]) was 16, the “No PCP” value (Pneumocystis carinii [1]; [19]) was 60 and the PCP (Pneumocystis carinii [1]; [19]) was 14. For the same compound, the “p, log rank 30 mg vs. 300 mg” value (Pneumocystis carinii [1]; prior PCP strata, eligible, confirmed PCP within 60 days) was “.002”, the “No PCP” value (Pneumocystis carinii [1]; [20]) was 47 and the PCP (Pneumocystis carinii [1]; [20]) was 20. The “No PCP” value (Pneumocystis carinii [1]; [21]) was 53, the PCP (Pneumocystis carinii [1]; [21]) was 14 and the “No PCP” value (Pneumocystis carinii [1]; [22]) was 66. The PCP (Pneumocystis carinii [1]; [22]) was 8, the “p, log rank 30 mg vs. 300 mg” value (Pneumocystis carinii [1]; prior PCP strata, intention to treat) was “.02” and the PCP (Pneumocystis carinii [1]; prior PCP strata, intention to treat, all PCP, 30 mg) was 33. For the same compound, the PCP (Pneumocystis carinii [1]; prior PCP strata, intention to treat, all PCP, 150 mg) was 24, the PCP (Pneumocystis carinii [1]; prior PCP strata, intention to treat, all PCP, 300 mg) was 21 and the “No PCP” value (Pneumocystis carinii [1]; prior PCP strata, intention to treat, 30 mg) was 46. For the same compound, the “No PCP” value (Pneumocystis carinii [1]; prior PCP strata, intention to treat, 150 mg) was 54, the “No PCP” value (Pneumocystis carinii [1]; prior PCP strata, intention to treat, 300 mg) was 59 and the PCP episodes (Pneumocystis carinii [1]; prior PCP stratum, all arms) was “Seventy-eight”. The “median time to PCP relapse” value (Pneumocystis carinii [1]; prophylaxis started within 3 months of prior episode) was 240 days, the “hazard of PCP” value (Pneumocystis carinii [1]; therapy started within 3 months vs later) was “less than half the hazard of PCP” and the “attack rate at 6.38 months” value (Pneumocystis carinii [2]; 300 mg twice or 600 mg once per month, p<0.01 vs previous study) was 3%. For the same compound, the “deaths associated with PCP” value (Pneumocystis carinii [2]; 3 deaths) was 2%, the “deaths due to other causes” value (Pneumocystis carinii [2]; 9 deaths) was 6% and the “evaluable patients who died” value (Pneumocystis carinii [2]; 12 of 146) was 8%. For the same compound, the “airway mucosal damage at repeat bronchoscopy” value [3] was “has not revealed evidence of airway mucosal damage”, the hypotension or dysglycemia [3] was “no episodes of hypotension or dysglycemia” and the “mild inhalation-associated cough, patients” value [3] was “Eight of thirteen”. The “mucosal damage at repeat bronchoscopy” value [3] was “evidence of mucosal damage has not been observed”, the “pentamidine-related reactions in some patients” value [3] was “cough, bronchospasm, or temperature elevation” and the “reversible bronchospasm, patients” value [3] was “five”. The “signs or symptoms of bronchitis or bronchospasm between inhalations” value [3] was “not present”, the microscopic airway changes [4] was “no microscopic airway changes” and the “response of all patients infected with P. carinii” value (Pneumocystis carinii [5]) was “responded to standard therapy”. The “mass of particles larger than 4 μm” value ([6]; at mouth-piece) was “less than 5%”, the “particle size MMAD” value ([6]; at mouth-piece (point B), ± GSD 1.88) was 1.42±1.88 μm and the “mass of particles larger than 4 μm” value ([6]; distal to nebulizer) was “greater than 20%”. The “number of observed cases” value (Pneumocystis carinii [7]) was 3 cases, the “minor toxicity (rash), patients” value ([8]; inhaled) was “One” and the major toxicity ([8]; inhaled, patients also received AZT) was 20%. For the same compound, the “minor toxicity (elevated serum creatinine, depressed leukocyte count), patients” value ([8]; intravenous) was “four”, the “required a change of therapy due to toxicity” value ([8]; intravenous) was 11% and the major toxicity ([8]; intravenous, hepatotoxicity) was 22%. For the same compound, the “successfully treated patients with relapses” value (Pneumocystis carinii [9]; inhaled) was “three of ten”, the Outcome of therapy (Pneumocystis carinii [9]; inhaled, 4 mg/Kg, UltraVent, single patients) was “success; also recorded: failed” and the “patients readmitted and treated for P. carinii pneumonia after discharge” value (Pneumocystis carinii [9]; inhaled, at one, three and two months) was “Three”. The “Time to discharge, all patients in group” value (Pneumocystis carinii [9]; inhaled, based on 9 successful patients) was 15 ± 1 days, the “patients with satisfactory outcome” value (Pneumocystis carinii [9]; inhaled, of the remaining ten evaluated patients) was “nine” and the “recurrence of PCP at follow-up” value (Pneumocystis carinii [9]; inhaled, remaining six, one to nine months following discharge) was “no recurrence of PCP”. The Time to discharge (Pneumocystis carinii [9]; inhaled, single patients) was 9 days, the “patients with satisfactory outcome” value (Pneumocystis carinii [9]; intravenous) was “Eight of nine” and the Outcome of therapy (Pneumocystis carinii [9]; intravenous, 3 mg/Kg, single patients) was “success; also recorded: failed”. For the same compound, the “Time to discharge, all patients in group” value (Pneumocystis carinii [9]; intravenous, based on 8 successful patients) was 14 ± 2 days, the relapses at follow-up (Pneumocystis carinii [9]; intravenous, four patients, five to six months) was “no reported relapses” and the “participants who experienced relapse” value (Pneumocystis carinii [10]) was 17. For the same compound, the “rate of severe reactions” value [11] was 50%, the severe adverse reactions [12] was “No patient developed any severe adverse reactions” and the major pentamidine-related toxicity [13] was “No major pentamidine-related toxicity”. For the same compound, the Cmax ([14]; human, plasma, intravenous, 3 mg/Kg, read-out: mean peak plasma concentration during first infusion) was 260 ± 56 ng/mL, the “plasma samples with no detectable drug” value ([14]; inhaled) was “approximately two-thirds” and the “lavage fluid concentration, inhalation vs iv-treated patients” value ([14]; inhaled vs intravenous) was “approximately 10 fold”. For the same compound, the “Plasma conc. on Day 1” value ([14]; inhaled) was 0.0 ng/mL, the “Plasma conc. on Day 1” value ([14]; inhaled, 1440 min) was 3.1 ng/mL and 14.7 ng/mL and 16.9 ng/mL and 7.3 ng/mL and 32.8 ng/mL and 12.3 ng/mL and 2.5 ng/mL and 7.4 ng/mL and 7.8 ng/mL and 35.0 ng/mL and 30.9 ng/mL and 9.2 ng/mL and the “maximum plasma concentration during remainder of therapy, single patients” value ([14]; intravenous, patient 3 day 5 (lowest), patient 19 day 14 (highest)) was 164 ng/mL and 1360 ng/mL. For the same compound, the “mild cough controlled by metaproterenol, patients” value (aerosol) was 9 patients, the “severe coughing, patients” value (aerosol, all smokers) was 3 patients and the “adverse systemic reactions (renal, liver, hematologic, hypoglycemia, hypotension)” value (in vivo) was “No adverse systemic reactions”. The air-way obstruction (in vivo) was “Neither clinical nor spirometric evidence of air-way obstruction occurred”, the clinical bronchospasm (in vivo) was “not seen” and the “coughing with therapy, patients” value (in vivo) was “Twelve”. For the same compound, the “Toxicity Req Change of Therapy” value (n = 15) was 0(0) n (%).
